According to patent publication US9745325B2, “Fused heterocyclic compound” (Takeda Pharmaceutical Company Limited, priority 2014, dated 2017):

Columns and labels:
CDK8/CycC = biological target: T1, CDK8/CycC (Homo sapiens, UniProt P49336); experiment: CDK8 inhibitory activity (Kinase Tracer-236 / Eu-anti-GST fluorescence assay); assay type: binding; parameters: Percent inhibition of CDK8 activity (%): concentration or dose not given beside the values; settings: test compound concentration given as '1 1.1.1\4' [sic]
T1 construct: purchased Carna Biosciences
T1 sequence (P49336 whole entry): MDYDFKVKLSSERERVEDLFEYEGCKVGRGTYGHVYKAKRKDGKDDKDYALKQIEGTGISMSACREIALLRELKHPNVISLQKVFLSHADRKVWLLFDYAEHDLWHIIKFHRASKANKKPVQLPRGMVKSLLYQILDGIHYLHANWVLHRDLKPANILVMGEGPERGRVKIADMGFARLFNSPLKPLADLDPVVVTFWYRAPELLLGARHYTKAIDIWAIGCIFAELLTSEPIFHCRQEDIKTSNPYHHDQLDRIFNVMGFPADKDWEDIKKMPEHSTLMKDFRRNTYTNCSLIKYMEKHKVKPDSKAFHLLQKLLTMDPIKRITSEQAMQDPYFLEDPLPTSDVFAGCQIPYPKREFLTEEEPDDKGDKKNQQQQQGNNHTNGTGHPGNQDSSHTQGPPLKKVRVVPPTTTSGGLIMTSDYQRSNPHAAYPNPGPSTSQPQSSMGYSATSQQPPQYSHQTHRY
T1 sequence (P24863 whole entry partner): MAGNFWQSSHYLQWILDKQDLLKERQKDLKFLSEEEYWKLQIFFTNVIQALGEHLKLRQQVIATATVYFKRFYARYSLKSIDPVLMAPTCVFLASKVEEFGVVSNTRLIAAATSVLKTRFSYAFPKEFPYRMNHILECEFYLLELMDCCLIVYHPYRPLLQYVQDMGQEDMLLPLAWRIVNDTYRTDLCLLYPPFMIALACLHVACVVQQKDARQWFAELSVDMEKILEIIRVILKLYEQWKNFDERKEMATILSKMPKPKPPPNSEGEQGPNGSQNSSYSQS
Experimental: (§1) The compound of the present invention was evaluated for its CDK8 inhibitory activity and CDK19 inhibitory activity by the following method. […] The primary diluted solution was dispensed in the amount of 2 μL/well to a 384-well plate, and then, a mixed solution of Eu^3+ Cryptate conjugated mouse monoclonal antibody anti-glutathione S-transferase (Cisbio) diluted 267-fold with an assay buffer and 60 nM Kinase Tracer-236 (Life technologies) was added thereto at 2 μL/well. […] After the addition, the plate was left standing at room temperature for 1 hour, and then, the fluorescence intensity (excitation wavelength 320 nm, fluorescence wavelength 615 nm, 665 nm, delay time 50 μsec) was measured using ann EnVision plate reader (PerkinElmer). The percent inhibition of CDK8 or CDK19 activity by the test compound can be calculated according to the following formula, wherein the fluorescence intensity of a reaction solution in the absence of compound is defined as the control, and the fluorescence intensity of a reaction solution in the presence of 10 μM of control compound is defined as the blank.

CDC2L6/CycC (CDK19) = biological target: T2, CDC2L6/CycC (CDK19) (Homo sapiens, UniProt Q9BWU1); experiment: CDK19 inhibitory activity (Kinase Tracer-236 / Eu-anti-GST fluorescence assay); assay type: binding; parameters: Percent inhibition of CDK19 activity (%): concentration or dose not given beside the values; settings: test compound concentration given as '1 1.1.1\4' [sic]
T2 construct: purchased Carna Biosciences Inc
T2 sequence (Q9BWU1 whole entry): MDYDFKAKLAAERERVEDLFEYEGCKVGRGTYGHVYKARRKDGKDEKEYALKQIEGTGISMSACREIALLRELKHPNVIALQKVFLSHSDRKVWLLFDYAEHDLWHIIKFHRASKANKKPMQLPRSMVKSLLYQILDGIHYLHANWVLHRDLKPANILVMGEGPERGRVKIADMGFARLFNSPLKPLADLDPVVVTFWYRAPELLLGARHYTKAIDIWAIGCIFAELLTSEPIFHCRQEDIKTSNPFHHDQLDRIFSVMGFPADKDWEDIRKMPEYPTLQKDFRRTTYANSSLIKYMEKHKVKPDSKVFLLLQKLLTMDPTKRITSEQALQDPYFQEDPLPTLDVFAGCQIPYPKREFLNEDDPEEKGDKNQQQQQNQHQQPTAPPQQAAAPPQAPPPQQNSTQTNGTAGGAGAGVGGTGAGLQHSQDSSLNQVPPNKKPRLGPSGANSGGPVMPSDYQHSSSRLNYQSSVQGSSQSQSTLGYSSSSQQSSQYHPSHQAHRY
T2 sequence (P24863 whole entry partner): as the sequence (P24863 whole entry partner) above
Experimental: as §1

[1] = system: human multiple myeloma RPMI8226 cells; experiment: Inhibitory activity against human multiple myeloma RPMI8226 cell growth (CellTiter-Glo); assay type: cell-based; settings: Homo sapiens, RPMI-8226, 192 h, 1 μM test compound, cultured for 8 days; read-out: Percent inhibition of RPMI8226 cell growth (%)
Experimental: The compound of the present invention was evaluated for its inhibitory activity against human multiple myeloma RPMI8226 cell growth by the following method.
A suspension of human multiple myeloma RPMI8226 cells (purchased from the Health Protection Agency) was inoculated at 40 μL (300 cells/well) to a 384-well plate and cultured at 37° C. for 1 day in a 5% CO2 incubator. After the culture, each test compound solution was added thereto at a test concentration of 1 μM using TECAN D300, and the cells were further cultured for 8 days. After the culture, CellTiter-Glo™ Luminescent Cell Viability Assay reagent (Promega) was added at 40 μL/well to a 384-well plate, and the amount of luminescence was measured using a luminometer. Inhibitory activity against human multiple myeloma RPMI8226 cell growth (percent inhibition (%)) of the test compound was calculated according to the following formula, which is based on the hypothesis that the amount of residual ATP reflects the number of cells. In this formula, 100% control represents the amount of luminescence from a well with only 0.1% DMSO added. Percent inhibition (%)=(1−(amount of luminescence of the test compound)÷(100% control))×100

Row | SMILES | Percent inhibition of CDK8 activity (%) (CDK8/CycC) | Percent inhibition of CDK19 activity (%) (CDC2L6/CycC (CDK19)) | inhibition at 1 µM [1]
1 | Cc1nc(N)ccc1Oc1sc(C(N)=O)c2c1-c1sncc1CC2 [Example 29, 8-((6-Amino-2-methylpyridin-3-yl)oxy)-4,5-dihydrothieno[3,4-g][1,2]benzothiazole-6-carboxamide] | 98% | 100% | 70%
2 | Cc1nc(NC(=O)C2CC2)ccc1Oc1sc(C(N)=O)c2c1-c1sncc1CC2 [Example 30, 8-((6-((Cyclopropylcarbonyl)amino)-2-methylpyridin-3-yl)oxy)-4,5-dihydrothieno[3,4-g][1,2]benzothiazole-6-carboxamide] | 104% | 102% | 71%
3 | Cc1nc(NC(=O)C2(O)CC2)ccc1Oc1sc(C(N)=O)c2c1-c1sncc1CC2 [Example 31, 8-((6-(((1-Hydroxycyclopropyl)carbonyl)amino)-2-methylpyridin-3-yl)oxy)-4,5-dihydrothieno[3,4-g][1,2]benzothiazole-6-carboxamide] | 103% | 101% | 59%
4 | NC(=O)c1sc(Oc2ccc(=O)[nH]c2)c2c1CCc1cnsc1-2 [Example 33, 8-((6-Oxo-1,6-dihydropyridin-3-yl)oxy)-4,5-dihydrothieno[3,4-g][1,2]benzothiazole-6-carboxamide] | 101% | 99% | 69%
5 | CON(C)C(=O)c1sc(Oc2cccnc2C)c2c1CCc1cnsc1-2 [Example 34, N-Methoxy-N-methyl-8-((2-methylpyridin-3-yl)oxy)-4,5-dihydrothieno[3,4-g][1,2]benzothiazole-6-carboxamide] | 100% | 98% | 50%
6 | Cc1ncccc1Oc1sc(C(=O)Nc2ncco2)c2c1-c1sncc1CC2 [Example 37, 8-((2-Methylpyridin-3-yl)oxy)-N-(1,3-oxazol-2-yl)-4,5-dihydrothieno[3,4-g][1,2]benzothiazole-6-carboxamide] | 95% | 94% | 73%
7 | Cc1ncccc1Oc1sc(C(=O)NO)c2c1-c1sncc1CC2 [Example 38, N-Hydroxy-8-((2-methylpyridin-3-yl)oxy)-4,5-dihydrothieno[3,4-g][1,2]benzothiazole-6-carboxamide] | 97% | 100% | 67%
8 | CC(=O)c1sc(Oc2cccnc2C)c2c1CCc1cnsc1-2 [Example 39, 1-(8-((2-Methylpyridin-3-yl)oxy)-4,5-dihydrothieno[3,4-g][1,2]benzothiazol-6-yl)ethanone] | 97% | 95% | 60%
9 | Cc1ncccc1Oc1sc(C#N)c2c1-c1sncc1CC2 [Example 40, 8-((2-Methylpyridin-3-yl)oxy)-4,5-dihydrothieno[3,4-g][1,2]benzothiazole-6-carbonitrile] | 69% | 58% | 61%
10 | Cc1ncccc1Oc1sc(C(N)=O)c2c1-c1snnc1CC2 [Example 43, 8-((2-Methylpyridin-3-yl)oxy)-4,5-dihydrothieno[3,4-g][1,2,3]benzothiadiazole-6-carboxamide] | 103% | 93% | 49%
11 | Cc1nn(C)cc1Oc1sc(C(N)=O)c2c1-c1sncc1CC2 [Example 47, 8-((1,3-Dimethyl-1H-pyrazol-4-yl)oxy)-4,5-dihydrothieno[3,4-g][1,2] benzothiazole-6-carboxamide] | 105% | 100% | 57%
12 | CC(C)S(=O)(=O)c1ccc(Oc2sc(C(N)=O)c3c2-c2sncc2CC3)cc1 [Example 50, 8-(4-(isopropylsulfonyl)phenoxy)-4,5-dihydrothieno[3,4-g][1,2]benzothiazole-6-carboxamide] | 99% | 99% | 58%
13 | CCCSc1sc(C(N)=O)c2c1-c1sncc1CC2 [Example 52, 8-(Propylsulfanyl)-4,5-dihydrothieno [3,4-g][1,2]benzothiazole-6-carboxamide] | 98% | 95% | 65%
14 | CS(=O)(=O)c1ccc(Oc2sc(C(N)=O)c3c2-c2sncc2CC3)cc1 [Example 53, 8-(4-(Methylsulfonyl)phenoxy)-4,5-dihydrothieno[3,4-g][1,2]benzothiazole-6-carboxamide] | 100% | 99% | 61%
15 | Cc1ncccc1Oc1sc(C(=O)NOCc2ccccc2)c2c1-c1sncc1CC2 [Example 58, N-(Benzyloxy)-8-((2-methylpyridin-3-yl)oxy)-4,5-dihydrothieno[3,4-g][1,2] benzothiazole-6-carboxamide] | 100% | 101% | 49%
16 | Cc1ncccc1Oc1sc(C(=O)Nn2cccc2)c2c1-c1sncc1CC2 [Example 87, 8-((2-Methylpyridin-3-yl)oxy)-N-(1H-pyrrol-1-yl)-4,5-dihydrothieno [3,4-g][1,2]benzothiazole-6-carboxamide] | 100% | 100% | 48%
17 | NC(=O)c1sc(Oc2ccc(S(F)(F)(F)(F)F)cc2)c2c1CCc1cnsc1-2 [Example 89] | 102% | 99% | 54%
18 | NC(=O)c1sc(Oc2ccc(C(F)(F)F)cc2)c2c1CCc1cnsc1-2 [Example 90] | 102% | 102% | 55%
19 | CN(C)C(=O)c1ccc(Oc2sc(C(N)=O)c3c2-c2sncc2CC3)cn1 [Example 91] | 90% | 95% | 58%
20 | NC(=O)c1sc(Oc2cncc(Br)c2)c2c1CCc1cnsc1-2 [Example 92, 8-((5-Bromopyridin-3-yl)oxy)-4,5-dihydrothieno[3,4-g][1,2]benzothiazole-6-carboxamide] | 89% | 95% | 58%
21 | NC(=O)c1sc(Oc2ccc(N)nc2)c2c1CCc1cnsc1-2 [Example 93, 8-((6-Aminopyridin-3-yl)oxy)-4,5-dihydrothieno[3,4-g][1,2]benzothiazole-6-carboxamide] | 87% | 96% | 63%
22 | CC(=O)Nc1ccc(Oc2sc(C(N)=O)c3c2-c2sncc2CC3)cn1 [Example 94, 8-((6-Acetamidopyridin-3-yl)oxy)-4,5-dihydrothieno[3,4-g][1,2]benzothiazole-6-carboxamide] | 90% | 97% | 63%
23 | CCOCCOc1sc(C(N)=O)c2c1-c1sncc1CC2 [Example 95, 8-(2-Ethoxyethoxy)-4,5-dihydrothieno [3,4-g][1,2]benzothiazole-6-carboxamide] | 97% | 89% | 69%
24 | Cn1cc(Oc2sc(C(N)=O)c3c2-c2sncc2CC3)cn1 [Example 96, 8-((1-Methyl-1H-pyrazol-4-yl)oxy)-4,5-dihydrothieno[3,4-g][1,2] benzothiazole-6-carboxamide] | 110% | 100% | 69%
25 | COCC(=O)Nc1ccc(Oc2sc(C(N)=O)c3c2-c2sncc2CC3)cn1 [Example 97, 8-((6-((Methoxyacetyl)amino)pyridin-3-yl)oxy)-4,5-dihydrothieno[3,4-g][1,2] benzothiazole-6-carboxamide] | 103% | 99% | 55%
